# Structures can show the parent of a compound that is named as a salt.
# Test: Sensory testing: taste testers rate sweetness of aqueous sweetener compositions without and with A1
# Assay type: in vivo, human
# Conditions: scale from 1 to 10
# Protocol: Compositions of various sweetening agents were prepared without any additive and with the sodium salt of N-(1-((4-amino-2,2-dioxo-1H-benzo[c][1,2,6]thiadiazin-5-yl)oxy)-2-methyl-propan-2-yl)isonicotinamide (A1) added at various concentrations. Taste testers were asked to rate the sweetness of the resulting aqueous compositions for sweetness on a scale from 1 to 10.
structure (smiles),measurement,setting,value
"CC(C)(COc1cccc2c1C(N)=NS(=O)(=O)N2)NC(=O)c1ccncc1 [A1, sodium salt of N-(1-((4-amino-2,2-dioxo-1H-benzo[c][1,2,6]thiadiazin-5-yl)oxy)-2-methyl-propan-2-yl)isonicotinamide]",sweetness rating,aqueous Allulose (3.5%) with 4 ppm A1,3.7
same,sweetness rating,aqueous Allulose (3.5%) with 8 ppm A1,4.7
same,sweetness rating,aqueous Allulose (3.5%) with 12 ppm A1,4.1
same,sweetness rating,aqueous Allulose (3.5%) with 16 ppm A1,5.5
same,sweetness rating,aqueous D-(+)-Glucose (7%) with 4 ppm A1,4.5
same,sweetness rating,aqueous D-(+)-Glucose (7%) with 8 ppm A1,4.2
same,sweetness rating,aqueous D-(+)-Glucose (7%) with 12 ppm A1,5.2
same,sweetness rating,aqueous D-(+)-Glucose (7%) with 16 ppm A1,5.7
same,sweetness rating,aqueous Erythritol (5%) with 4 ppm A1,4.4
same,sweetness rating,aqueous Erythritol (5%) with 8 ppm A1,4.4
same,sweetness rating,aqueous Erythritol (5%) with 12 ppm A1,5.7
same,sweetness rating,aqueous Erythritol (5%) with 16 ppm A1,6.0
same,sweetness rating,aqueous Fructose (7%) with 4 ppm A1,7.1
same,sweetness rating,aqueous Fructose (7%) with 8 ppm A1,7.4
same,sweetness rating,aqueous Fructose (7%) with 12 ppm A1,8.0
same,sweetness rating,aqueous Fructose (7%) with 16 ppm A1,8.3
same,sweetness rating,aqueous HFCS (7%) with 4 ppm A1,5.9
same,sweetness rating,aqueous HFCS (7%) with 8 ppm A1,7.2
same,sweetness rating,aqueous HFCS (7%) with 12 ppm A1,7.4
same,sweetness rating,aqueous Reb M (200 ppm) with 4 ppm A1,5.3
same,sweetness rating,aqueous Reb M (200 ppm) with 8 ppm A1,6.3
same,sweetness rating,aqueous Reb M (200 ppm) with 12 ppm A1,6.1
same,sweetness rating,aqueous Reb M (200 ppm) with 16 ppm A1,7.3
same,sweetness rating,aqueous Sucralose (80 ppm) with 4 ppm A1,6.1
same,sweetness rating,aqueous Sucralose (80 ppm) with 8 ppm A1,6.6
same,sweetness rating,aqueous Sucralose (80 ppm) with 12 ppm A1,7.1
same,sweetness rating,aqueous Sucralose (80 ppm) with 16 ppm A1,7.0
same,sweetness rating,aqueous Sucrose (5%) with 4 ppm A1,6.4
same,sweetness rating,aqueous Sucrose (5%) with 8 ppm A1,7.3
same,sweetness rating,aqueous Sucrose (5%) with 12 ppm A1,8.0
"O=C(CO)C(O)C(O)C(O)CO (stereo not shown) [Allulose, reference compound]",sweetness rating,"aqueous Allulose (3.5%), No A1",3.0
"O=C[C@H](O)[C@@H](O)[C@H](O)[C@H](O)CO [D-(+)-Glucose, reference compound]",sweetness rating,"aqueous D-(+)-Glucose (7%), No A1",3.8
"OC[C@@H](O)[C@@H](O)CO [Erythritol, reference compound]",sweetness rating,"aqueous Erythritol (5%), No A1",4.0
"O=C(CO)[C@@H](O)[C@H](O)[C@H](O)CO [Fructose, reference compound]",sweetness rating,"aqueous Fructose (7%), No A1",7.1
"C=C1C[C@@]23CC[C@H]4[C@@](C)(CCC[C@@]4(C)C(=O)O[C@@H]4O[C@H](CO)[C@@H](O)[C@H](O[C@@H]5O[C@H](CO)[C@@H](O)[C@H](O)[C@H]5O)[C@H]4O[C@@H]4O[C@H](CO)[C@@H](O)[C@H](O)[C@H]4O)[C@@H]2CC[C@]1(O[C@@H]1O[C@H](CO)[C@@H](O)[C@H](O[C@@H]2O[C@H](CO)[C@@H](O)[C@H](O)[C@H]2O)[C@H]1O[C@@H]1O[C@H](CO)[C@@H](O)[C@H](O)[C@H]1O)C3 [Reb M, Rebaudioside M, reference compound]",sweetness rating,"aqueous Reb M (200 ppm), No A1",4.7
"OC[C@H]1O[C@H](O[C@]2(CCl)O[C@H](CCl)[C@@H](O)[C@@H]2O)[C@H](O)[C@@H](O)[C@H]1Cl [Sucralose, reference compound]",sweetness rating,"aqueous Sucralose (80 ppm), No A1",3.3
"OC[C@H]1O[C@@](CO)(O[C@H]2O[C@H](CO)[C@@H](O)[C@H](O)[C@H]2O)[C@@H](O)[C@@H]1O [Sucrose, reference compound]",sweetness rating,"aqueous Sucrose (5%), No A1",3.6
